Like-named read-outs stand apart in the source and are kept apart here. Starred links: 1 amine or outer side, 2 acyl side, 3 side chain; linkers in the order of their positions; H or OH if unused. Positions of bridges follow the written chain, without caps; N, C: chain ends. Residues, ends and D or L forms follow the SMILES beside them. No end group written: not given here. *: point of attachment. C18 diacid = O=C(O)CCCCCCCCCCCCCCCCC(=O)*; γGlu = O=C(O)[C@H](CCC(=O)[*:2])N[*:1]; C18d = not defined here; AEEA = NCCOCCOCC(=O)O
What was measured:
[1] = Local tolerance of CNP compounds in rats (s.c. injection, histopathology); format: in vivo, Sprague Dawley rat; conditions: rat, s.c. 350 μl, about 1000 nmol/ml, 5 days post injection
Protocol: The purpose of this study was to evaluate the local tissue reaction to subcutaneous injection of CNP compounds in rats.
Procedure: The CNP compounds were formulated according to the principles described in General Methods of Preparation-Method G. Each Sprague Dawley rat (male, 10-11 weeks of age at arrival, Janvier, France) was dosed s.c. with 250 or 350 uL of the same compound (formulation concentration of 1000 nmol/mL) 120 h prior to tissue collection resulting in a total of two injections for each animal (Table 15). Injection site (flank or neck) was alternated across animals within each group and time point.
Animals had access to tap water and food (Altromin 1324) ad libitum. Group size was n=3 for vehicles and positive control, and n=4 for test compounds. Vehicles and compounds were formulated in either 5 mM sodium acetate, 250 mM glycerol, pH 4.0 or 8 mM sodium phosphate, 250 mM glycerol, pH 7.4 as shown in Table 16.
The animals were anesthetized with isoflurane. Via an electric shaving machine, a squared area of fur (2 cm×2 cm) was removed either from the rats' neck or flank area). For dosing, a new injection needle (25G canula, 1 ml syringe) was placed in the middle of the square border closest to the animal's head and the needle was inserted into the skin from the border towards the center of the square. […] On the day of tissue collection, the rats were deeply anaesthetized with isoflurane and euthanized by exsanguination. The injection sites were inspected and scored with regards to pathological lesions. The injection sites were evaluated, and any changes were noted (location, colour, shape and size), and sampled for histology preparation.
The injection sites were removed and fixed in 4% phosphate buffered neutral formaldehyde in sealed plastic containers.
Each injection site was subsequently cut into three sections 0.8 cm, 1.0 cm and 1.2 cm from the square border where the injection needle was placed, and, respectively, these sections represented the injection sites and the adjacent tissue. The tissue was processed, embedded in paraffin and cut in 2-4 μm thin sections, stained with the haematoxylin and eosin (H&E), and evaluated microscopically with a light microscope. Histopathological changes were graded on a 5-level scale (Minimal (Min), Mild (Mil), Moderate (Mod), Marked (Mar) and Severe (Sev)).

[2] = CNP local tolerance study in LYD pigs (s.c. injection, histopathology); format: in vivo, domestic LYD pig; conditions: LYD pig, s.c., approx. 4400 μM, 4 or 5 days after injection
Excerpt: The purpose of this study was to evaluate the local tissue reaction response to subcutaneous injection of CNP compounds in pigs.
Procedure: In domestic pigs, the injection site was subjected to histopathologic examination after subcutaneous dosing. Injections were placed mid-back between the shoulder and hip on both sides of the dorsal midline, and one or two days before injection sites of 2×2 cm were shaved and marked by permanent ink under light anaesthesia. Each injection consisted of 100 or 200 μl formulation with a concentration of approx. 4400 μM. CNP compound formulations were prepared according to the principles in General Methods of Preparation—Method G, and were either A) 8 mM sodium phosphate, 250 mM glycerol, pH 6.5, B) 5 mM sodium acetate, 250 mM glycerol, pH 4.0 or C) 5 mM sodium acetate, 240 mM propylene glycol, pH 4.0 and physiological saline was included as negative control.
On Day 1 the pigs were lightly anaesthetised. An insulin pen (NovoPen 4) and insulin needle (NovoTwist 32G/5 mm) were used for accurate deposition of the CNP formulations in the subcutaneous fat tissue with the needle perpendicular to the skin. On Day 5 (4 days post injection) or 6 (5 days post injection), the pigs were euthanised, and the injection sites were removed and fixed in 4% phosphate buffered neutral formaldehyde in sealed plastic containers. The tissue blocks were prefixed for 2-4 hours in 10% buffered formalin, cut into 2 mm thick slabs with a multi knife, examined for macroscopic changes and finally fixed overnight in cassettes. Two slabs of tissue were selected for light microscopic evaluation where the tissue reaction was maximal or alternatively in the central part of the injection site. Three to four 2-4 μm sections were cut from three levels at 100 μm distance, stained with haematoxylin and eosin (H&E) and evaluated in a light microscope. Histopathological changes were graded on a 5-level scale ((Minimal (Min), Mild (Mil), Moderate (Mod), Marked (Mar) and Severe (Sev)). The studies are summarised in Table 18.
Results: The results are summarised in Table 19. * Necrosis was used as a marker for local subcutaneous reactions; **NAD: No Abnormalities Detected

[3] = PK after i.v. and s.c. administration to Göttingen minipig; conditions: female, in vivo, Göttingen Minipig
Protocol: The purpose of this study was to investigate pharmacokinetic and pharmacodynamic properties after intravenous (i.v.) and subcutaneous (s.c.) administration to Gottingen Minipig and domestic LYD pig, and to estimate bioavailability after s.c. dosing. Quantitative plasma analysis of CNP and cGMP levels were performed as described in
Animals and dosing: The pharmacokinetic and pharmacodynamic studies in Gottingen Minipig or domestic LYD pig were conducted at CRO Minerva Imaging or Novo Nordisk A/S, respectively. CNP compounds were dosed to normal female 1) Gottingen minipigs 6-12 months of age with an average weight of 22 kg or 2) domestic LYD pigs 4-5 months of age with and average weight of 80 kg. At least one week prior to dosing, permanent central venous catheters were implanted for blood sampling and intravenous (i.v.) dosing. For subcutaneous (s.c.) dosing, the pigs were ultrasound scanned and the optimal injection area laterally on the neck marked by a permanent tattoo. An insulin pen (NovoPen Echo or NovoPen 4) and insulin needle (NovoFine 32G/4 mm or NovoTwist 32G/5 mm) were used for accurate deposition of the CNP formulations in the subcutaneous fat tissue with the needle perpendicular to the skin.
CNP compounds were formulated according to the principles in General Methods of Preparation—Method G and were either A) 8 mM sodium phosphate, 250 mM glycerol, pH 6.5, B) 5 mM sodium acetate, 250 mM glycerol, pH 4.0, C) 5 mM sodium acetate, 240 mM propylene glycol, pH=4.0, D) 8 mM sodium phosphate, 250 mM glycerol, pH 7.5 or E) 20 mM sodium phosphate, 223 mM propylene glycol, pH 6.0.
Intravenously, the CNP compounds were dosed at 30-60 nmol/kg to Minipig and 15-43 nmol/kg to domestic pig using formulations A-E. Subcutaneously, the CNP compounds were dosed at 55-62 nmol/kg to Minipig and 20-30 nmol/kg to domestic pig using formulations A-D.
Sampling: Blood samples of approximately 1 mL were collected pre dose and up to 14 days post dose into EDTA-coated tubes (8 mM) for cGMP and CNP compound analysis by LC-MS. In few instances, cGMP was only analysed up to 48 hours post dose after intravenous dosing in domestic LYD pig. The blood samples were kept on wet ice for maximum 30 minutes until centrifugation for 10 minutes at 4° C. and minimum 1500G, and the plasma samples were stored at −20° C. until analysis.
Plasma concentration-time profiles were analyzed by non-compartmental PK analysis using Phoenix WinNonlin 8.1, Pharsight Inc., Mountain View, CA, USA. Calculation of the area under the plasma concentration-time curve (AUC) was based on the “linear up log down” method, and uniform weighting was used for estimation of the terminal rate constant (λz). S.c. bioavailability (F) was calculated as the dose-normalized AUC (AUC/dose) after s.c. administration divided by the AUC/dose after i.v. administration. […]

neprilysin (NEP) [4] = target: T1, neprilysin (NEP) (Homo sapiens, UniProt P08473); assay: In vitro neprilysin stability; conditions: recombinant human neprilysin (rhNEP), pH 7.4
T1 sequence (P08473 whole entry): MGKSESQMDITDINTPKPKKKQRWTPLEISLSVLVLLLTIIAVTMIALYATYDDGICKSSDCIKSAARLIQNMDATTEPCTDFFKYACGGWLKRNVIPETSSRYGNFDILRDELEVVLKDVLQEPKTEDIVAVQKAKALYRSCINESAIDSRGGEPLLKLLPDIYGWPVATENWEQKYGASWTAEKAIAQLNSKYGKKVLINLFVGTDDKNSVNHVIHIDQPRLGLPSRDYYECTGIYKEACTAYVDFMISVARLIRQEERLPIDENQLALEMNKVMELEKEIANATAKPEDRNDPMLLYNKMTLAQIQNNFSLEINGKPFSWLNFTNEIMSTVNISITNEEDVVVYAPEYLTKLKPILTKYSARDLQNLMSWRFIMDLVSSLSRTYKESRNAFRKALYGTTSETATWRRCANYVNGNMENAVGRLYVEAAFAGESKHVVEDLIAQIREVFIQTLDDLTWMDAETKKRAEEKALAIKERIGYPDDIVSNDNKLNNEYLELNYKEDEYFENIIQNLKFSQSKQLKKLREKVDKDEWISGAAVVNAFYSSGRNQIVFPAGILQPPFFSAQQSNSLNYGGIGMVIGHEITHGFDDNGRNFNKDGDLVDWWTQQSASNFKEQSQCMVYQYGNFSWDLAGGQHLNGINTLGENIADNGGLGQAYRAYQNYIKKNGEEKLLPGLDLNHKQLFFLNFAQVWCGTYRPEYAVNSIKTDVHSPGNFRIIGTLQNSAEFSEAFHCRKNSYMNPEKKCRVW

neprilysin (NEP) [5] = target: T1, neprilysin (NEP)
[6] = target: Recombinant human neprilysin (rhNEP; R&D Systems) (human) (UniProt P08473); assay: cell-based or functional assay
Chain of Recombinant human neprilysin (rhNEP; R&D Systems) (human) (P08473 52-750 limits assumed): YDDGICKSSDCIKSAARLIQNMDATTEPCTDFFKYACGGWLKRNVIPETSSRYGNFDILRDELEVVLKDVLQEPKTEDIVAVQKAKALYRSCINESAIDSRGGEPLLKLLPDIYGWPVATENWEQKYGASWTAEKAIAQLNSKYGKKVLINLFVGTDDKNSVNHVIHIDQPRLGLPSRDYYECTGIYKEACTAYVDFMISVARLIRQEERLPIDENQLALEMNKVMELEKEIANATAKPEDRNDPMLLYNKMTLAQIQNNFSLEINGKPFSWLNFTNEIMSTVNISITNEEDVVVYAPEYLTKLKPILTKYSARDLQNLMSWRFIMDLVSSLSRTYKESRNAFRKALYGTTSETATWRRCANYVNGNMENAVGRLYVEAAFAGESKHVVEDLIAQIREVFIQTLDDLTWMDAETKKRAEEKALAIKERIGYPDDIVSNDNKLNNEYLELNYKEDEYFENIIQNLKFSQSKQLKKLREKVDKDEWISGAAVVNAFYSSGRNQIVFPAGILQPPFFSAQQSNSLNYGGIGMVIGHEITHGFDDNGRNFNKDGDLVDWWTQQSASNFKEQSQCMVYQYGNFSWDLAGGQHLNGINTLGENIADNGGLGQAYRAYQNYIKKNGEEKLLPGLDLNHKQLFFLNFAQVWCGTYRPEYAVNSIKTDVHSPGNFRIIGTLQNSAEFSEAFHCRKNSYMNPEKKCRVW

[7] = in vivo; cited from earlier work
[8] = target: Recombinant human neprilysin (rhNEP; R&D Systems) (human, UniProt P08473 52-750); assay: cell-based or functional assay
Chain of Recombinant human neprilysin (rhNEP; R&D Systems) (P08473 52-750 limits assumed): as above

## CC[C@H](C)[C@@H]1NC(=O)[C@H](CCCNC(=N)N)NC(=O)[C@H](CC(=O)O)NC(=O)[C@H](CC(C)C)NC(=O)[C@@H]2CCCN2C(=O)[C@H](CC(C)C)NC(=O)CNC(=O)[C@H](Cc2ccccc2)NC(=O)[C@@H](NC(=O)CNC(=O)[C@H](CCC(N)=O)NC(=O)[C@H](CO)NC(=O)[C@H](CO)NC(=O)CNC(=O)[C@H](CCCCN)NC(=O)[C@H](CCCCN)NC(=O)[C@H](CCC(N)=O)NC(=O)[C@H](C)NC(=O)CNC(=O)[C@@H]2CCCN2C(=O)[C@H](C)NC(=O)[C@H](CCC(N)=O)NC(=O)CNC(=O)COCCOCCNC(=O)COCCOCCNC(=O)CC[C@H](NC(=O)CCCCCCCCCCCCCCCCC(=O)O)C(=O)O)CSSC[C@@H](C(=O)O)NC(=O)CNC(=O)[C@H](CC(C)C)NC(=O)CNC(=O)[C@H](CO)NC(=O)[C@H](CC(C)C)NC(=O)[C@H](CO)NC(=O)CNC1=O [Compound 9384] ({C18 diacid-γGlu-AEEA-AEEA}-GQAPGAQKKGSSQGCFGLPLDRIGSLSGLGC-OH; disulfide 15-31)
[1]
  Number of injections by severity of necrosis: NAD (No Abnormalities Detected): 4
[2]
  Number of injections by severity of necrosis: Min.: 1
  Number of injections by severity of necrosis: NAD: 3
[3]; iv, i.v., read-out: CL (ml/hr/kg), Intravenous PK (converted)
  clearance: 1.53 mL/h/kg
[3]; iv, i.v., read-out: T½, iv (converted)
  half-life: 61 h
[3]; sc, s.c. bioavailability, read-out: F (%), Subcutaneous PK
  bioavailability: 78%
[3]; sc, s.c., read-out: T½, sc (converted)
  half-life: 61 h
Neprilysin (NEP) [4]
  remaining at 1.5 h, 1000 nM: 87.8%

## CC[C@H](C)[C@@H]1NC(=O)[C@H](CCCNC(=N)N)NC(=O)[C@H](CC(=O)O)NC(=O)[C@H](CC(C)C)NC(=O)[C@H](CCCCN)NC(=O)[C@H](CC(C)C)NC(=O)CNC(=O)[C@H](Cc2ccccc2)NC(=O)[C@@H](NC(=O)CNC(=O)[C@H](CCCCN)NC(=O)[C@H](CO)NC(=O)[C@H](CC(C)C)NC(=O)CN)CSSC[C@@H](C(=O)O)NC(=O)CNC(=O)[C@H](CC(C)C)NC(=O)CNC(=O)[C@H](CO)NC(=O)[C@H](CCSC)NC(=O)[C@H](CO)NC(=O)CNC1=O [Compound ID 0065, hCNP22]
Neprilysin (NEP) [5]
  stability in the presence of recombinant human neprilysin: rapidly degraded

## Compound ID 9483, [N-terminal(C18d-4xgGlu), 5Q, 13Q, 19S, 25P, 27E, 32L]-hCNP37 (peptide)
[6]
  Remaining of parent after 90 min (%): 106%

## wt CNP: wild-type C-type natriuretic peptide; half-life of approximately two minutes
[7]
  half-life: approximately two

B1: Compound ID 9480, [N-terminal(C18d-3xgGlu-4xOEG), des1-8, 13Q, 19Q, 25P, 32L]-hCNP37 (peptide)
peptide: {C18d-γGlu-γGlu-γGlu-AEEA-AEEA-AEEA-AEEA}-YKGAQKKGLSQGCFGLPLDRIGSLSGLGC
modifications: disulfide 13-29 (inferred); reading uncertain; also: printed as [N-terminal(C18d-3xgGlu-4xOEG), des1-8, 13Q, 19Q, 25P, 32L]-hCNP37
[8]
  Remaining of parent after 90 min (%): 98.3%

## {C18d-γGlu-γGlu-γGlu-γGlu-γGlu}-QEHPQARKYKGAQKKGLSSGCFGLPLDRIGSLSGLGC (disulfide 21-37 (inferred); reading uncertain) [Compound ID 9482, [N-terminal(C18d-5xgGlu), 5Q, 13Q, 19S, 25P, 32L]-hCNP37]
[8]
  Remaining of parent after 90 min (%): 96.3%

B2: Compound ID 9384, [N-terminal(C18d-gGlu-2xOEG-GQAP), des1-10, 13Q, 17S, 19Q, 25P, 32L]-hCNP37 (peptide)
peptide: {C18d-γGlu-AEEA-AEEA}-GQAPGAQKKGSSQGCFGLPLDRIGSLSGLGC
modifications: disulfide 15-31 (inferred); reading uncertain; also: printed as [N-terminal(C18d-gGlu-2xOEG-GQAP), des1-10, 13Q, 17S, 19Q, 25P, 32L]-hCNP37
[8]
  Remaining of parent after 90 min (%): 87.8%

B3: Compound ID 9407, [N-terminal(C18d-5xgGlu-4xOEG), des1-5, 13Q, 19Q, 25P, 32L]-hCNP37 (peptide)
peptide: {C18d-γGlu-γGlu-γGlu-γGlu-γGlu-AEEA-AEEA-AEEA-AEEA}-ARKYKGAQKKGLSQGCFGLPLDRIGSLSGLGC
modifications: disulfide 16-32 (inferred); reading uncertain; also: printed as [N-terminal(C18d-5xgGlu-4xOEG), des1-5, 13Q, 19Q, 25P, 32L]-hCNP37
[8]
  Remaining of parent after 90 min (%): 96.6%

B4: Compound ID 9435, [N-terminal(C18d-2xgGlu-4xOEG), des1-8, 13Q, 17G, 19Q, 25P, 32L]-hCNP37 (peptide)
peptide: {C18d-γGlu-γGlu-AEEA-AEEA-AEEA-AEEA}-YKGAQKKGGSQGCFGLPLDRIGSLSGLGC
modifications: disulfide 13-29 (inferred); reading uncertain; also: printed as [N-terminal(C18d-2xgGlu-4xOEG), des1-8, 13Q, 17G, 19Q, 25P, 32L]-hCNP37
[8]
  Remaining of parent after 90 min (%): 93.2%
